One experiment deals with SST5 (Homo sapiens, UniProt P35346). In words: Hit Hunter cAMP XS+ assay, SST5 activation via Gi (reduction of forskolin-stimulated cAMP). It counts as cell-based. The following applies: for Emax: read-out: SST5 (EMax); for EC50: reduction of forskolin-stimulated cAMP, 4-parameter logistic fit, read-out: SST5 pEC50 (converted); for SST5/2 Selectivity: selectivity for SST5 over SST2. Put shortly:
(§1)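 Cells (10,000/well) incubated 30 min at 37 °C with compound under EC80 forskolin ([…] for SST2, 15 μM for SST5). cAMP reduction was detected by enzyme-fragment complementation chemiluminescence after 60 min and 180 min room-temperature reagent steps. Potency and efficacy were both measured.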

The next experiment has as its target SST2 (Homo sapiens, UniProt P30874). In words: Hit Hunter cAMP XS+ assay, SST2 activation via Gi (reduction of forskolin-stimulated cAMP). The format is cell-based. The settings on record: for Emax: read-out: SST2 (EMax); for EC50: reduction of forskolin-stimulated cAMP, 4-parameter logistic fit, read-out: SST2 pEC50 (converted). Put shortly: as §1

Results on 16 molecules are retold here after US11987648B2, “Cyclohexapeptides as selective somatostatin SST5 receptor agonists” (Heptares Therapeutics Limited, priority 2018, dated 2024).

The structures appear in SMILES notation. *1 amine or outer side, *2 acyl side, *3 side chain or, on linkers, in order; H or OH if unused. Where a SMILES comes first, the peptide text is derived from it. Side-chain parts run from the residue outwards. [ ]: non-standard residue; d: D form. The star is where a group is joined. Ala(piperidin-4-yl) = O=C([C@H](CC1CCN([*:3])CC1)N[*:1])[*:2]; dTrp(4-OMe) = COc1cccc2[nH]cc(C[C@@H](N)C(=O)O)c12; X8 = COc1cc2c(cc1OC)CN([*:1])[C@H](C(=O)[*:2])C2; dTrp(4-Me) = Cc1cccc2[nH]cc(C[C@@H](N)C(=O)O)c12; Ala(piperazin-1-yl) = N[C@@H](CN1CCNCC1)C(=O)O; Tyr(Ph) = N[C@@H](Cc1ccc(Oc2ccccc2)cc1)C(=O)O; Morpholine(3S-CO) = O=C(O)[C@@H]1COCCN1; Pro(4,4-F2) = O=C(O)[C@@H]1CC(F)(F)CN1; Ethylenediamine = C(CN[*:2])N[*:1]; d(hPhe) = N[C@H](CCc1ccccc1)C(=O)O; Hyp = O=C(O)[C@@H]1C[C@@H](O)CN1; NMeF = CN[C@@H](Cc1ccccc1)C(=O)O; hPhe = N[C@@H](CCc1ccccc1)C(=O)O; 3Pal = N[C@@H](Cc1cccnc1)C(=O)O; Cyclohexylmethyl = C1CCC(C*)CC1; Tic = O=C(O)[C@@H]1Cc2ccccc2CN1; Benzyl(4-Cl) = Clc1ccc(C*)cc1; Phg = N[C@H](C(=O)O)c1ccccc1; X9 = O=C(C1CNCCN1[*:1])[*:2]; Pip = O=C(O)[C@@H]1CCCCN1; CO = O=C([*:1])[*:2]; Bn = c1ccc(C*)cc1

Chain of SST2 (P30874 whole entry): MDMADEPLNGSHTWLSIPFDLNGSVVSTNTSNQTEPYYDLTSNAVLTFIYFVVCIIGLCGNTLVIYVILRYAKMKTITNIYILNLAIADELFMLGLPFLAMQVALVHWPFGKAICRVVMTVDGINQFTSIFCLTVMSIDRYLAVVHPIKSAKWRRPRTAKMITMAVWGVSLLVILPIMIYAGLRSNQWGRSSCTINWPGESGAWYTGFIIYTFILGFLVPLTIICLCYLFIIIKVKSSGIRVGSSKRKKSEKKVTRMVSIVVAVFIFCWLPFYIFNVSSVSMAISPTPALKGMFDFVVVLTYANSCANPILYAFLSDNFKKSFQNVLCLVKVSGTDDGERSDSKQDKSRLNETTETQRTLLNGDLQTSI
Chain of SST5 (P35346 whole entry, the tested form may be a part): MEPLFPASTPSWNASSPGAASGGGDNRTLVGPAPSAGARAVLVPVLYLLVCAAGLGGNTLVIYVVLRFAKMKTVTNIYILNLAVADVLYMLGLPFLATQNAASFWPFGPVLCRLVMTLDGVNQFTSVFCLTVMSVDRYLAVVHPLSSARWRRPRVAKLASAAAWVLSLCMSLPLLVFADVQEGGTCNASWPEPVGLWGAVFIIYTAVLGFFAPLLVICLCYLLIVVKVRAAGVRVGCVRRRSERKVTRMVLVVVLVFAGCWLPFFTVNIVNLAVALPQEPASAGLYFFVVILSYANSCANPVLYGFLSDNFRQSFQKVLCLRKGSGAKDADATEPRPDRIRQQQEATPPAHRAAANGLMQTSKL

A word on the Emax: it is the greatest response seen or fitted, relative to the assay's reference. Regarding `COc1ccc(C[C@@H]2NC(=O)[C@H](Cc3ccc(OCc4ccccc4)cc3)NC(=O)[C@H](CC3CCNCC3)NC(=O)[C@@H](Cc3c[nH]c4ccccc34)NC(=O)[C@@H](CCc3ccccc3)NC(=O)[C@@H]3C[C@@H](OC(=O)NCCN)CN3C2=O)cc1` [Example 55] (cyclo([Hyp]([CO-Ethylenediamine])[d(hPhe)][dW][Ala(piperidin-4-yl)]Y(Bn)Y(Me))), on SST5, the Emax came to 106%, the EC50 is 10 nM and the “SST5/2 Selectivity” value was determined as 1120.0. At SST2, the Emax is 85.9% and the EC50 is greater than 10000 nM.
In the same order, the values of `CN1C(=O)[C@H](Cc2ccc(OCc3ccccc3)cc2)NC(=O)[C@H](CN2CCNCC2)NC(=O)[C@@H](Cc2c[nH]c3ccccc23)NC(=O)[C@H](CCc2ccccc2)NC(=O)[C@@H]2C[C@@H](OC(=O)NCCN)CN2C(=O)[C@@H]1Cc1ccccc1` [Example 57] (cyclo([Hyp]([CO-Ethylenediamine])[hPhe][dW][Ala(piperazin-1-yl)]Y(Bn)[NMeF])) are 102%, 0.501 nM, 404.6, 96.5% and 200 nM.
On to `NCCNC(=O)O[C@@H]1C[C@H]2C(=O)N[C@H](CCc3ccccc3)C(=O)N[C@H](Cc3c[nH]c4ccccc34)C(=O)N[C@@H](CN3CCNCC3)C(=O)N[C@@H](Cc3ccc(OCc4ccc(Cl)cc4)cc3)C(=O)N[C@@H](Cc3cccnc3)C(=O)N2C1` [Example 58] (cyclo([3Pal][Hyp]([CO-Ethylenediamine])[d(hPhe)][dW][Ala(piperazin-1-yl)]Y(Benzyl(4-Cl)))), for which, on SST5, the Emax was 103%, the EC50 was 15.8 nM and the “SST5/2 Selectivity” value turned out to be 695.7. Besides, at SST2, the maximal response (Emax) was found to be 42.9% and the EC50 is greater than 10000 nM.
On the same counts, the results for `NCCNC(=O)O[C@@H]1C[C@H]2C(=O)N[C@@H](CCc3ccccc3)C(=O)N[C@H](Cc3c[nH]c4ccccc34)C(=O)N[C@@H](CN3CCNCC3)C(=O)N[C@@H](Cc3ccc(OCc4ccc(Cl)cc4)cc3)C(=O)N[C@@H](Cc3cccnc3)C(=O)N2C1` [Example 59] (cyclo([3Pal][Hyp]([CO-Ethylenediamine])[hPhe][dW][Ala(piperazin-1-yl)]Y(Benzyl(4-Cl)))) are 106%, 0.631 nM, 738.9, 95.7% and 501 nM.
On the same counts, the results for `Cc1cccc2[nH]cc(C[C@H]3NC(=O)[C@H](CCc4ccccc4)NC(=O)[C@@H]4C[C@@H](OC(=O)NCCN)CN4C(=O)[C@H](Cc4cccnc4)NC(=O)[C@H](Cc4ccc(OCc5ccccc5)cc4)NC(=O)[C@H](CC4CCNCC4)NC3=O)c12` [Example 60] (cyclo([3Pal][Hyp]([CO-Ethylenediamine])[hPhe][dTrp(4-Me)][Ala(piperidin-4-yl)]Y(Bn))) are 104%, 1 nM, 129.4, 99.8% and 126 nM.
Regarding `O=C1N[C@@H](Cc2ccc(OCc3ccccc3)cc2)C(=O)N2Cc3ccccc3C[C@H]2C(=O)N2CCOC[C@H]2C(=O)N[C@H](CCc2ccccc2)C(=O)N[C@H](Cc2c[nH]c3ccccc23)C(=O)N[C@H]1CN1CCNCC1` [Example 61] (cyclo([Tic][Morpholine(3S-CO)][d(hPhe)][dW][Ala(piperazin-1-yl)]Y(Bn))), at SST5, the Emax stood at 103%, the EC50 was 31.6 nM and the “SST5/2 Selectivity” value is recorded as 291.4. Moreover, at SST2, the Emax was 23.4% and the EC50 is greater than 10000 nM.
`O=C1N[C@@H](Cc2ccc(OCc3ccccc3)cc2)C(=O)N2Cc3ccccc3C[C@H]2C(=O)N2CCOC[C@H]2C(=O)N[C@H](CCc2ccccc2)C(=O)N[C@H](Cc2c[nH]c3ccccc23)C(=O)N[C@H]1CC1CCNCC1` [Example 62] (cyclo([Tic][Morpholine(3S-CO)][d(hPhe)][dW][Ala(piperidin-4-yl)]Y(Bn))): on SST5, the Emax amounted to 102%, the EC50 was 3.16 nM and the “SST5/2 Selectivity” value turned out to be 224.3. For the same molecule, on SST2, the Emax was 99.4% and the EC50 was 631 nM.
As for `COc1cccc2[nH]cc(C[C@H]3NC(=O)[C@@H](CCc4ccccc4)NC(=O)[C@@H]4COCCN4C(=O)[C@@H]4Cc5ccccc5CN4C(=O)[C@H](Cc4ccc(OCc5ccccc5)cc4)NC(=O)[C@H](CN4CCNCC4)NC3=O)c12` [Example 63] (cyclo([Tic][Morpholine(3S-CO)][d(hPhe)][dTrp(4-OMe)][Ala(piperazin-1-yl)]Y(Bn))), on SST5, the maximal effect (Emax) is 104%, the EC50 was 2.51 nM and the “SST5/2 Selectivity” value is given as 24.4. In addition, at SST2, the Emax is 102% and the EC50 is 63.1 nM.
As to `COc1cccc2[nH]cc(C[C@H]3NC(=O)[C@H](c4ccccc4)NC(=O)[C@@H]4C[C@@H](OC(=O)NCCN)CN4C(=O)[C@H](Cc4ccccc4)NC(=O)[C@H](Cc4ccc(OCc5ccccc5)cc4)NC(=O)[C@H](CN4CCNCC4)NC3=O)c12` [Example 64] (cyclo(F[Hyp]([CO-Ethylenediamine])[Phg][dTrp(4-OMe)][Ala(piperazin-1-yl)]Y(Bn))), at SST5, the maximum response (Emax) turned out to be 104%, the EC50 was 15.8 nM and the “SST5/2 Selectivity” value came out at 5.5. At SST2, the Emax is 100% and the EC50 was 100 nM.
With `O=C1N[C@@H](CCc2ccccc2)C(=O)N[C@H](Cc2c[nH]c3ccccc23)C(=O)N[C@@H](CN2CCNCC2)C(=O)N[C@@H](Cc2ccc(OCc3ccccc3)cc2)C(=O)N2Cc3ccccc3C[C@H]2C(=O)N2CCNCC12` (some centres unmarked) [Example 65] (cyclo([Tic][X9][hPhe][dW][Ala(piperazin-1-yl)]Y(Bn))), at SST5, the Emax worked out at 99.4%, the EC50 is 0.398 nM and the “SST5/2 Selectivity” value stood at 2293.7. For the same molecule, on SST2, the maximal effect (Emax) is 91.8% and the EC50 was 1000 nM.
In the same order, the values of `COc1cc2c(cc1OC)CN1C(=O)[C@H](Cc3ccc(OCc4ccccc4)cc3)NC(=O)[C@H](CC3CCNCC3)NC(=O)[C@@H](Cc3c[nH]c4ccccc34)NC(=O)[C@H](CCc3ccccc3)NC(=O)[C@@H]3C[C@@H](OC(=O)NCCN)CN3C(=O)[C@@H]1C2` [Example 66] (cyclo([Hyp]([CO-Ethylenediamine])[hPhe][dW][Ala(piperidin-4-yl)]Y(Bn)[X8])) are 103%, 1.26 nM, 7454.5, 51.1% and greater than 10000 nM.
In the same order, the values of `NCCNC(=O)O[C@@H]1C[C@H]2C(=O)N[C@@H](CCc3ccccc3)C(=O)N[C@H](Cc3c[nH]c4ccccc34)C(=O)N[C@@H](CC3CCNCC3)C(=O)N[C@@H](Cc3ccc(Oc4ccccc4)cc3)C(=O)N[C@@H](Cc3cccnc3)C(=O)N2C1` [Example 67] (cyclo([3Pal][Hyp]([CO-Ethylenediamine])[hPhe][dW][Ala(piperidin-4-yl)][Tyr(Ph)])) are 104%, 15.8 nM, 25.7, 98.3% and 398 nM.
In the same order, the values of `COc1cccc2[nH]cc(C[C@H]3NC(=O)[C@H](CCc4ccccc4)NC(=O)[C@@H]4COCCN4C(=O)[C@@H]4Cc5ccccc5CN4C(=O)[C@H](Cc4ccc(OCc5ccccc5)cc4)NC(=O)[C@H](CN4CCNCC4)NC3=O)c12` [Example 68] (cyclo([Tic][Morpholine(3S-CO)][hPhe][dTrp(4-OMe)][Ala(piperazin-1-yl)]Y(Bn))) are 98.8%, 0.316 nM, 791.6, 99.1% and 251 nM.
Consider `NCCNC(=O)O[C@@H]1C[C@H]2C(=O)N[C@@H](CCc3ccccc3)C(=O)N[C@H](Cc3c[nH]c4ccccc34)C(=O)N[C@@H](CN3CCNCC3)C(=O)N[C@@H](Cc3ccc(OCc4ccccc4)cc3)C(=O)N3CCCC[C@H]3C(=O)N2C1` [Example 69] (cyclo([Hyp]([CO-Ethylenediamine])[hPhe][dW][Ala(piperazin-1-yl)]Y(Bn)[Pip])), for which, on SST5, the Emax turned out to be 103%, the EC50 is 79.4 nM and the “SST5/2 Selectivity” value is reported as 124.3. Moreover, at SST2, the Emax was found to be 69% and the EC50 is greater than 10000 nM.
In the same order, the values of `NCCNC(=O)O[C@@H]1C[C@H]2C(=O)N[C@@H](CCc3ccccc3)C(=O)N[C@H](Cc3c[nH]c4ccccc34)C(=O)N[C@@H](CN3CCNCC3)C(=O)N[C@@H](Cc3ccc(OCc4ccccc4)cc3)C(=O)N3CC(F)(F)C[C@H]3C(=O)N2C1` [Example 70] (cyclo([Hyp]([CO-Ethylenediamine])[hPhe][dW][Ala(piperazin-1-yl)]Y(Bn)[Pro(4,4-F2)])) are 102%, 5.01 nM, 1815.8, 77.9% and greater than 10000 nM.
For the molecule `NCCNC(=O)O[C@@H]1C[C@H]2C(=O)N[C@H](CCc3ccccc3)C(=O)N[C@H](Cc3c[nH]c4ccccc34)C(=O)N[C@@H](CN3CCNCC3)C(=O)N[C@@H](Cc3ccc(OCC4CCCCC4)cc3)C(=O)N[C@@H](Cc3cccnc3)C(=O)N2C1` [Example 71] (cyclo([3Pal][Hyp]([CO-Ethylenediamine])[d(hPhe)][dW][Ala(piperazin-1-yl)]Y(Cyclohexylmethyl))), on SST5, the Emax amounted to 103%, the EC50 is 63.1 nM and the “SST5/2 Selectivity” value was found to be 171.4. At SST2, the Emax was 52.8% and the EC50 is greater than 10000 nM.
